Test [1] relates to HepG2 cells originating from human liver cancer. In words: EPO production in HepG2 cells (EPO ELISA of culture supernatant, 4% oxygen, 48 hrs). In kind it is cell-based. The following applies: test compound 3 μM, oxygen 4%, non-stimulated state = 100%, read-out: EPO production amount, % of control (3 μM). Summed up:
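HepG2 cells in phenol red-free DMEM with 10% fetal serum treated with compound at final 3 μM or 10 μM, 48 h at 4% oxygen. Supernatant EPO by ELISA, expressed as % of untreated control.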
(In general: In an ELISA, binding on a coated surface is turned into a signal by an enzyme label.)

Test [2] relates to K562 cells, human proerythroblast cells. The experiment in a line: Hemoglobin production in K562 cells (fluorescence of the porphyrin ring). In kind it is cell-based. To be noted: 144 h, test compound 6 μM, 3+3 days, non-stimulated state = 100%, read-out: production amount of hemoglobin, % of control (6 μM). A digest of the protocol:
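K562 cells at 1×10^5 cells/mL in RPMI-1640 with 10% FBS, exposed to compound 3 days, medium exchanged, then 3 more days at 37 °C, 5% CO2. Hemoglobin from 3×10^5 cells measured as porphyrin fluorescence after boiling 30 min in 2 M oxalic acid; expressed as % of untreated control.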

For the molecule `CC(=O)N1c2ccc(C(=O)N(C)C)cc2C(Nc2ccc(Cl)cc2)CC1C` (stereo not drawn) [Compound 113, 1-acetyl-4-[(4-chlorophenyl)amino]-N,N,2-trimethyl-1,2,3,4-tetrahydroquinoline-6-carboxamide], in test [1], the activity at 3 µM came out at 112%. For the same molecule, in test [2], the activity at 6 µM turned out to be 163%.
In the same order, the values of `CNC(=O)c1ccc2c(c1)C(Nc1ccc(Cl)cc1)CC(C)N2C(C)=O` (stereo not drawn) [Compound 114, 1-acetyl-4-[(4-chlorophenyl)amino]-N,2-dimethyl-1,2,3,4-tetrahydroquinoline-6-carboxamide] are 198% and 152%.
For `CC(=O)N1CCN(c2ccc3c(c2)[C@H](Nc2ccc(Cl)cc2)C[C@H](C)N3C(C)=O)CC1` (relative stereo) [Compound 79, cis-1-acetyl-6-[(4-acetyl)piperazino]-4-[(4-chlorophenyl)amino]-2-methyl-1,2,3,4-tetrahydroquinoline], in that order: 476% and 186%.
For `CC(=O)N1c2ccccc2[C@H](OCc2ccccc2)C[C@@H]1C` (relative stereo) [Compound 36, cis-1-acetyl-2-methyl-4-benzyloxy-1,2,3,4-tetrahydroquinoline], in that order: 114% and 83%.
Regarding `CC(=O)N1c2ccccc2[C@H](Oc2ccc(F)cc2)C[C@@H]1C` (relative stereo) [Compound 27, cis-1-acetyl-4-(4-fluorophenoxy)-2-methyl-1,2,3,4-tetrahydroquinoline], in test [1], the activity at 3 µM is 292%. Moreover, in test [2], the activity at 6 µM came out at 281%.
In the same order, the values of `CC(=O)N1c2ccccc2C(Nc2ccc(C#N)cc2)CC1C` (stereo not drawn) [Compound 9, 1-acetyl-4-[(4-cyanophenyl)amino]-2-methyl-1,2,3,4-tetrahydroquinoline] are 405% and 406%.
With `COc1ccc(NC2CC(C)N(C(C)=O)c3ccccc32)cc1` (stereo not drawn) [Compound 10, 1-acetyl-4-[(4-methoxyphenyl)amino]-2-methyl-1,2,3,4-tetrahydroquinoline], in test [1], the activity at 3 µM was 172%. Moreover, the activity at 6 µM in test [2] is 409%.
In the same order, the values of `CC(=O)N1c2ccccc2[C@H](Oc2ccc(F)c(F)c2)C[C@@H]1C` (relative stereo) [Compound 31, cis-1-acetyl-4-(3,4-difluorophenoxy)-2-methyl-1,2,3,4-tetrahydroquinoline] are 302% and 156%.
In the same order, the values of `CC(=O)N1c2ccc(N)cc2C(Nc2ccc(Cl)cc2)CC1C` (stereo not drawn) [Compound 95, 1-acetyl-6-amino-4-[(4-chlorophenyl)amino]-2-methyl-1,2,3,4-tetrahydroquinoline] are 213% and 158%.

The record behind these values is patent US20130172345A1, “1-ACYL-4-(PHENOXY, BENZYLOXY, OR PHENYLAMINO)-1,2,3,4-TETRAHYDROQUINOLINE DERIVATIVES” (KOWA COMPANY, LTD., priority 2007, published 2013).
